From patent US12485169B2, “Compounds” (GREY WOLF THERAPEUTICS LIMITED, priority 2018, dated 2025)

target: T1, Purified ERAP1 (37-941)-10His (ERAP1) (Homo sapiens, UniProt Q9NZ08); test: ERAP1 mediated hydrolysis of an amide substrate (10-mer inhibition assay), biochemical system; conditions: 10-mer substrate, 23° C., 1 h, excitation 279 nm / emission 355 nm; read-out: IC50 vs Decapeptide WRVYEKC(Dnp)ALK-acid (where Dnp is Dinitrophenyl maleimide) (10-mer)
T1 construct: Purified ERAP1 (37-941)-10His (ERAP1)
T1 sequence (Q9NZ08 37-941): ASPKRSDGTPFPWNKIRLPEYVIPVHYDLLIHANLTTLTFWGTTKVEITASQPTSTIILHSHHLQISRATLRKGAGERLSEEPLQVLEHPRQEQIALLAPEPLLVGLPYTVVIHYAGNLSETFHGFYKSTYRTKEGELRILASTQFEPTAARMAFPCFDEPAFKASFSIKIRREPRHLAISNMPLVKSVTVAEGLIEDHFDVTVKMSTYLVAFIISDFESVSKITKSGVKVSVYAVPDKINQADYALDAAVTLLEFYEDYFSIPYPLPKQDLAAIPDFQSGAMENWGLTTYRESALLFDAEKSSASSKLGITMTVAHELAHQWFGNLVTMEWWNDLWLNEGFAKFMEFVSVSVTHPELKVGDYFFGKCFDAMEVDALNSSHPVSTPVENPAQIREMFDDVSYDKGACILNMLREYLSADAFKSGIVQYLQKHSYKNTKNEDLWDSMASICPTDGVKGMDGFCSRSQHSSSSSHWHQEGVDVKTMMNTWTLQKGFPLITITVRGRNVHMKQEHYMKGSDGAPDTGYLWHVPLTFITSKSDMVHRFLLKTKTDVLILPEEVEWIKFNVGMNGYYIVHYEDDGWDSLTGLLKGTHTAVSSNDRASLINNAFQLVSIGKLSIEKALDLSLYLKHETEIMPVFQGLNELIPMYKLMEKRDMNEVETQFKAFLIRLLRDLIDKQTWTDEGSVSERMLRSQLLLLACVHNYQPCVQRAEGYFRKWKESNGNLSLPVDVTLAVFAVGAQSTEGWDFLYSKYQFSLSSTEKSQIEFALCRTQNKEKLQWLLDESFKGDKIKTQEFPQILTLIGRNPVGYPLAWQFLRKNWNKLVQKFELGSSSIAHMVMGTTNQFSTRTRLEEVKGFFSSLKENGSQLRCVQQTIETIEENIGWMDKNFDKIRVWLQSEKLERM

SMILES	IC50 [µM]
O=C(O)c1ccc(C2CC2)c(S(=O)(=O)Nc2cc(-n3cnnn3)c(F)cc2N2CCCCC2)c1 [Example 333, 4-cyclopropyl-3-(N-(4-fluoro-2-(piperidin-1-yl)-5-(tetrazol-1-yl)phenyl)sulfamoyl)benzoic acid]	< 0.5
O=C(O)c1ccc(C2CC2)c(S(=O)(=O)Nc2cc(-n3cnnn3)c(Cl)cc2N2CCCCC2)c1 [Example 334, 3-(N-(4-chloro-2-(piperidin-1-yl)-5-(tetrazol-1-yl)phenyl)sulfamoyl)-4-cyclopropylbenzoic acid]	< 0.5
[2H]C1([2H])C([2H])([2H])C1([2H])c1ccc(C(=O)O)cc1S(=O)(=O)Nc1cc(C#N)ccc1N1CCCCC1 [Example 335, 3-(N-(5-cyano-2-(piperidin-1-yl)phenyl)sulfamoyl)-4-(cyclopropyl-d5)benzoic acid]	< 0.5
CC(C)(C)c1ccc(C(=O)O)cc1S(=O)(=O)Nc1cc(C#N)ccc1N1CCCCC1 [Example 337, 4-(tert-butyl)-3-(N-(5-cyano-2-(piperidin-1-yl)phenyl)sulfamoyl)benzoic acid]	< 5
C#Cc1ccc(C(=O)O)cc1S(=O)(=O)Nc1cc(C#N)ccc1N1CCCCC1 [Example 338, 3-(N-(5-cyano-2-(piperidin-1-yl)phenyl)sulfamoyl)-4-ethynylbenzoic acid]	> 5

Second part, the compound after the results:

IC50 [µM]	SMILES
< 0.5	N#Cc1ccc(N2CCCCC2)c(NS(=O)(=O)c2cc(C(=O)O)ccc2C2CCC2)c1 [Example 330, 3-(N-(5-cyano-2-(piperidin-1-yl)phenyl)sulfamoyl)-4-cyclobutylbenzoic acid]
< 0.5	CS(=O)(=O)c1cc(NS(=O)(=O)c2cc(C(=O)O)ccc2C2CC2)c(N2CCCCC2)cc1F [Example 331, 4-cyclopropyl-3-(N-(4-fluoro-5-(methylsulfonyl)-2-(piperidin-1-yl)phenyl)sulfamoyl)benzoic acid]
< 0.5	CS(=O)(=O)c1cc(NS(=O)(=O)c2cc(C(=O)O)ccc2C2CC2)c(N2CCCCC2)cc1Cl [Example 332, 3-(N-(4-chloro-5-(methylsulfonyl)-2-(piperidin-1-yl)phenyl)sulfamoyl)-4-cyclopropylbenzoic acid]
< 0.5	Cc1cc(C#N)cc(NS(=O)(=O)c2cc(C(=O)O)ccc2C2CC2)c1N1CCCCC1 [Example 336, 3-(N-(5-cyano-3-methyl-2-(piperidin-1-yl)phenyl)sulfamoyl)-4-cyclopropylbenzoic acid]
